The values that follow come from patent publication US11937624B2, “Food composition” (INNOVAFOOD AB, priority 2011, dated 2024).

Experiment [1] deals with blood glucose. As to the kind of experiment: Postprandial blood glucose response to white wheat bread test meal with test drink (Example 1). Format: in vivo, human. The procedure:
(§1) Four different beverages were tested by the inventors; one reference, one with only the amino acid mixture, one with only CrPic, and one combining the amino acid mixture with CrPic. The amino acids used were L-leucine, L-isoleucine, L-lysine, L-valine and L-threonine.
(§2) The reference (“Ref”) drink was made out of tap water and aroma, poured into 330 mL bottles and carbonated with a Table Top Carbonator CF-121 (Omve) set at 10 g CO2/L.
(§3) The beverage with CrPic (“CrPic”) was prepared by dissolving one thawed pellet of concentrated CrPic solution (4.0 grams) in 308.0 grams of carbonated tap water and thereafter 0.19 grams of aroma was added. Additional CO2 was added just before serving with a Soda Streamer to mimic the amount in the Ref drink.
(§4) The beverage with amino acids (“5AA”) was prepared by dissolving 6.9 grams of the amino acid mixture in 305.1 grams of carbonated tap water and thereafter 0.19 grams of aroma was added. Additional CO2 was added just before serving with a Soda Streamer to mimic the amount in the Ref drink. See Table 7 for composition of amino acid mixture.
(§5) The beverage with amino acids and CrPic (“5AA+CrPic”) was prepared by dissolving 6.9 grams of the amino acid mixture and one thawed pellet of concentrated CrPic solution (4 grams) in 301.1 grams of carbonated tap water and thereafter 0.19 grams of aroma was added. Additional CO2 was added just before serving with a Soda Streamer to mimic the amount in the Ref drink.
(§6) The test meals consisted of sandwiches made of white wheat bread (Dollarfranska, Lockarps, Lockarp, Sweden), contributing with 50 grams of available starch, and the test drinks. The white wheat bread was spread with 10 grams of butter (Bregott, Arla, Stockholm, Sweden) and 24 grams of orange marmalade (kindly provided by Önos, Procordia Food, Eslöv). The sandwiches provided 9 grams of protein and an additional amount of carbohydrates from the marmalade and butter of 14 grams. A schematic overview of the composition of the different test meals is found in Table 2.
(§7) Nineteen healthy subjects, 11 men and 8 women, aged 38-60 (51±1 years; mean±SEM) and with body mass indexes of 24-30 (27.3±0.3 kg/m2; mean±SEM) were included in the study. All subjects had normal fasting blood glucose levels (5.6±0.1 mmol/L, mean±SEM).
(§8) The test subjects were instructed to eat a dinner of own choice (but with a low content of fiber) as well as an evening meal consisting of white wheat bread and a beverage, and to eat the same meals the evening before every test occasion. After the white wheat bread meal at around 9-10 p.m., the subjects were thereafter to restrain from ingesting anything but maximum a half glass of water on the morning of the test occasion.
(§9) Upon arrival at the laboratory at 07:45 on the test day, the subjects were sat to rest before a fasting capillary blood sample was drawn. Immediately thereafter, the test meal was served and a digital timer was started. Together with the drinks, a […] sandwich meal was served, containing 64 g available carbohydrates, 9.1 g protein and 11.7 g fat. The subjects were instructed to finish the meal in 10-15 minutes and to alternate between eating and drinking. All meals were well tolerated, and the subjects had no problems finishing eating within the 10-15 min period.
(§10) Capillary blood samples were taken at fasting and 15, 30, 45, 60, 90, 120 and 180 min after the ingestion of the meal for the analysis of blood glucose and serum insulin.
(§11) Blood glucose was immediately analyzed in serum with the use of a B-glucose analyzer (Hemocue AB, Ängelholm, Sweden). Serum tubes were centrifuged for 5 min (3000 rpm) and serum was frozen at −18° C. for the measurement of insulin. The serum insulin measurement was performed on an integrated immunoassay analyzer (CODA open Microplate System, Bio-Rad Laboratories, Hercules, CA) by using an enzyme immunoassay kit (Mercodia Insulin ELISA, Mercodia AB, Uppsala, Sweden). […]

The subject of experiment [2] is serum insulin. As to the kind of experiment: Postprandial serum insulin response to white wheat bread test meal with test drink (Example 1). Format: in vivo, human. As to the method:
as §1, §2, §3, §4, §5, §6, §7, §8, §9, §10, §11

[3] abbreviates: Table 5 comparison, 0-120 min, mean ± SEM, n=19 (5AA n=18).
Where [4] appears, read: Table 5 comparison, vs Ref meal.
The mark [5] stands for this setting: healthy subjects, carbonated water drink with sandwich meal, 0-60 min, mean ± SEM, n=19 (5AA n=18).
[6] abbreviates: healthy subjects, carbonated water drink with sandwich meal, 0-120 min, mean ± SEM, n=19 (5AA n=18).
[7] abbreviates: healthy subjects, carbonated water drink with sandwich meal, 0-180 min, mean ± SEM, n=19 (5AA n=18).

Marks after values point to notes of the source that are not given here.

With Chromium tripicolinate [CrPic], the “Change in glucose iAUC 0-60 min as a percentage of the reference meal” value in experiment [1] (0-60 min, vs Ref meal) is reported as −13%. Moreover, in experiment [1] (0-120 min, vs Ref meal), the “Change in glucose iAUC 0-120 min as a percentage of the reference meal” value is −6%. In experiment [1] (0-180 min, vs Ref meal), the “Change in glucose iAUC 0-180 min as a percentage of the reference meal” value is −4%. This substance returned a Glucose iAUC 0-120 min in experiment [1] (setting [3]) of 189 ± 20.7 mmol·min/L. The “Change (%) of glucose iAUC 0-120 min” value in experiment [1] (setting [4]) is on record as −6%. In experiment [1] (setting [5]), the “Blood glucose iAUC 0-60 min” value is 100.2 ± 9.3^ac mmol min/L. The “Blood glucose iAUC 0-120 min” value in experiment [1] (setting [6]) is on record as 189.1 ± 20.7^ab mmol min/L. For the same substance, the “Blood glucose iAUC 0-180 min” value in experiment [1] (setting [7]) turned out to be 222.3 ± 25.6 mmol·min/L. Further, the “Change in insulin iAUC 0-60 min as a percentage of the reference meal” value in experiment [2] (0-60 min, vs Ref meal) is given as −12%. The “Change in insulin iAUC 0-120 min as a percentage of the reference meal” value in experiment [2] (0-120 min, vs Ref meal) was −10%. Moreover, the “Change in insulin iAUC 0-180 min as a percentage of the reference meal” value in experiment [2] (0-180 min, vs Ref meal) is given as −11%. The Insulin iAUC 0-120 min in experiment [2] (setting [3]) is 15.4 ± 1.9 nmol·min/L; in experiment [2] (setting [6]) it was 15.4 ± 1.9^a nmol · min/L. The “Change (%) of insulin iAUC 0-120 min” value in experiment [2] (setting [4]) was −10%. Also, in experiment [2] (setting [5]), the “Insulin iAUC 0-60 min” value is on record as 7.5 ± 0.9^a nmol · min/L. In addition, in experiment [2] (setting [7]), the “Insulin iAUC 0-180 min” value was 18.5 ± 2.6^b nmol · min/L.
